Legend:
[1] = test system: human primary muscle cells; assay: Assay for myogenesis (troponin-T myotube detection); format: cell-based; conditions: human primary myoblasts, differentiation medium, 96 hours, dose dependent response
Description: In order to confirm the results from the primary assay described above, a secondary assay for myogenesis in vitro on all the hits obtained in this primary screening assay. This secondary assay focused on the later stage of myogenesis when the muscle cells fuse together and form multinucleated myotubes. This assay was based on the detection of the mature troponin-T protein that is expressed in myotubes. In particular, two measurements were made: Fusion factor, which is the % of nuclei that are inside the multinucleated myotubes compare to total nuclei and give a readout for muscle cell differentiation. Myotube area, which is measured based on the Troponin T staining and give a readout on the myotube size and muscle fiber growth. Human primary myoblasts were seeded in 384 well plates at a density of 3'000 cells per well in skeletal muscle growth medium (SKM-M, AMSbio). After one day, the differentiation is induced by a medium change. For treatment, compounds were directly added to the myoblast cultures for 96 hours. Myotubes were stained for TroponinT expression using antibodies directed against TroponinT and counterstained with Hoechst 33342 to visualize cell nuclei. Image acquisition was performed using the ImageXpress (Molecular Devices) platform. Custom module analysis based on Multi-Wavelength Cell Scoring of the MetaXpress software was used for quantification.

[2] = test system: human primary muscle stem cells; assay: Assay for muscle stem cell commitment (Pax7/MyoD immunofluorescence high content screening); format: cell-based; conditions: human primary myoblasts, 96 hours
Description: The inventors developed a high content screening to test in vitro compounds on human primary adult muscle cells. Human Skeletal Muscle Myoblasts (HSMM) were purchased from Lonza (https://bioscience.lonza.com). These cells were isolated from the upper arm or leg muscle tissue of normal donors and used after the second passage. Several donors have been tested to ensure cell viability and purity before selecting the final donor which was a person. The primary screening assay was based on the high content detection of two important myogenic regulatory factors (Pax7 and MyoD) by immunofluorescence. Pax7 and MyoD are the major hallmarks of muscle stem cell stemness and commitment and can be used to monitor muscle stem cell progeny. In particular, Pax7 marks early amplification while MyoD is a later marker for myogenic commitment, and combinations of these markers define the different states of proliferation, differentiation and self-renewal. […] Human primary myoblasts were seeded in 384 well plates at a density of 1'000 cells per well in skeletal muscle growth medium (SKM-M, AMSbio). For treatment, compounds were directly added to the myoblast cultures 16 hours after initial plating. All cultures were then grown for 96 hours. […] Custom module analysis based on Multi-Wavelength Cell Scoring of the MetaXpress software was used for quantification.

Structure (SMILES): O=C1Nc2ccc(I)cc2C1=Cc1cc(Br)c(O)c(Br)c1 [GW5074, 3-(3,5-Dibromo-4-hydroxy-benzylidene)-5-iodo-1,3-dihydro-indol-2-one]
- myogenic differentiation (Fusion Factor, percent nuclei within troponinT-positive myotubes) ([1]; FIG. 2A): enhanced myogenic differentiation
- myofiber growth (area covered by troponinT-positive myotubes) ([1]; FIG. 2B): enhanced
- proportion of MyoD+ cells as percent of total cell number (myogenic commitment) ([2]; FIG. 1A, dose-dependent response, MyoD+ = Pax7-/MyoD+): increase in the proportion of MyoD+ cells
- number of Pax7+ cells (expansion of muscle stem cells) ([2]; FIG. 1B, dose dependent response, Pax7+ regardless of MyoD expression): increase in Pax7+ cells

Source: patent US20220047552A1, “RAF-1 KINASE INHIBITOR COMPOUNDS FOR SKELETAL MUSCLE MODULATION, METHODS AND USES THEREOF” (SOCIETE DES PRODUITS NESTLE S.A., priority 2018, published 2022)
